In patent US4812469A, “Acetamides derived from 2,3-dihydro-3-phenyl-2-benzofuranone” (Adir Et Cie, priority 1987, dated 1989):
Where a name gives a salt, the structure may show the parent alone. Read-outs that look alike come from different tables or passages of the source.

Tests used:
[1] = system: survival of cerebral tissue during acute hypoxia; experiment: Acute hypobaric hypoxia in mice, survival time of the brain (final respiratory gasp); assay type: in vivo, mice (male CD1)
Description: (§1) The compounds of the present invention were tested in respect of their capacity to prolong the survival of cerebral tissue during acute hypoxia in mice, or to maintain the level of tissue energy-rich compounds in rats subjected to a fall in the oxygen supply [Pharmacology of Cerebral Ischemia, ([…]) p. 334-339 Elsevier Science Publishers B.V., J. Krieglstein ed.]. […] Forsch. Drug Res. (1986), 36 II No. 9, p. 1314-1320].
The survival of the brain is assessed by measuring the time at which the final respiratory gasp is observed.
The survival time of a treated batch is compared with that of a control batch receiving only the solvent.

[2] = system: tissue energy-rich compounds (ATP, ADP, AMP) of the brain; experiment: Acute normobaric hypoxia in rats, brain tissue energy-rich compounds (ATP level and energy content); assay type: in vivo, rats (male Fischer 344); settings: for % inhibition of the effects of hypoxia: ATP / % inhibition of the effects of hypoxia: EC (energy content): 3% oxygen for 2 minutes
Description: as §1
Whereas the control rats breathe a gaseous mixture containing 21% of oxygen and 79% of nitrogen, the rats subjected to hypoxia breath a mixture of 3% oxygen and 97% nitrogen for 2 minutes.
At the end of the hypoxic period, the animals are rapidly sacrificed by total immersion in liquid nitrogen. The frozen brain is removed and the energy-rich compounds (ATP, ADP, AMP) are extracted and assayed by the luciferin luminescence method.
The tissue energy content (EC) is calculated according to ATKINSON's formula: [formula]

[3] = Mus musculus, ip, read-out: Percentage increase in the survival time
[4] = Mus musculus, ip, 100 mg/kg I.P., 30 minutes before hypoxia (160 mbar), mice, vs control batch, read-out: Percentage increase in the survival time
[5] = Mus musculus, ip, 30 mg/kg I.P., 30 minutes before hypoxia (160 mbar), mice, vs control batch, read-out: Percentage increase in the survival time
[6] = 100 mg/kg I.P., listed as pyritinol

## CN(C)CCOC(=O)COc1ccc(Cl)cc1 [Meclofenoxate, meclofenoxate, reference compound]
[1]; [3]
  ILS at 30 mg/kg: 4%
  ILS at 100 mg/kg: 22%
[2]; 300 mg/kg I.P.
  % inhibition of the effects of hypoxia: ATP: 59.7%
  % inhibition of the effects of hypoxia: EC (energy content): 69.6%

## NC(=O)Cc1cccc2c1OC(=O)C2c1ccccc1 (centres unmarked) [Example 8, 2-(2,3-Dihydro-2-oxo-3-phenyl-7-benzofuranyl)acetamide]
[1]; [4]
  ILS at 100 mg/kg: 13%

## O=C1Oc2ccc(CC(=O)N3CCN(c4ccc(C(F)(F)F)cn4)CC3)cc2C1c1ccccc1 (centres unmarked) [Example 3, 2-(2,3-Dihydro-2-oxo-3-phenyl-5-benzofuranyl)-1-[4-(5-trifluoromethyl-2-pyridyl)piperazinyl]-1-oxoethane]
[1]; [5]
  ILS at 30 mg/kg: 36%
[1]; [4]
  ILS at 100 mg/kg: 57%

## NC(=O)Cc1cc(Cl)cc2c1OC(=O)C2c1ccccc1 (centres unmarked) [Example 9, 2-(5-Chloro-2,3-dihydro-2-oxo-3-phenyl-7-benzofuranyl)acetamide]
[1]; [4]
  ILS at 100 mg/kg: 23%

## CN1CCN(C(=O)Cc2ccc3c(c2)C(c2ccccc2)C(=O)O3)CC1 (centres unmarked) [Example 5, 2-(2,3-Dihydro-2-oxo-3-phenyl-5-benzofuranyl)-1-(4-methylpiperazinyl)-1-oxoethane tartrate]
[1]; [3]
  ILS at 100 mg/kg: 111%

## NC(=O)CN1CCCC1=O [Piracetam, piracetam, reference compound]
[1]; [4]
  ILS at 100 mg/kg: 11%

## O=C1Oc2ccc(CC(=O)N3CCN(Cc4ccc5c(c4)OCO5)CC3)cc2C1c1ccccc1 (centres unmarked) [Example 4]
[1]; [3]
  ILS at 3 mg/kg: 43%
  ILS at 10 mg/kg: 49%
  ILS at 30 mg/kg: 54%
  ILS at 100 mg/kg: 133%

## Cc1ncc(CSSCc2cnc(C)c(O)c2CO)c(CO)c1O [Pyritinol, pyritinol]
[1]; 100 mg/kg, mice, p<0.05
  significance of the protection (brain survival time): significant
[1]; [5]
  ILS at 30 mg/kg: 13%
[1]; [4]
  ILS at 100 mg/kg: 27%
[2]; 30 mg/kg I.P.
  % inhibition of the effects of hypoxia: ATP: 11.1%
  % inhibition of the effects of hypoxia: EC (energy content): 16.6%
[2]; 100 mg/kg I.P.
  % inhibition of the effects of hypoxia: ATP: 23.3%
  % inhibition of the effects of hypoxia: EC (energy content): 35.2%
[2]; [6]
  % inhibition of the effects of hypoxia: ATP: 23%
  % inhibition of the effects of hypoxia: EC (energy content): 35%

## NC(=O)Cc1ccc2c(c1)C(c1ccccc1)C(=O)O2 (centres unmarked) [Example 1, 2-(2,3-Dihydro-2-oxo-3-phenyl-5-benzofuranyl)acetamide]
[1]; Mus musculus, ip, 3 mg/kg I.P., 30 minutes before hypoxia (160 mbar), mice, vs control batch, read-out: Percentage increase in the survival time
  ILS at 3 mg/kg: 24%
[1]; [5]
  ILS at 30 mg/kg: 46%
[1]; [4]
  ILS at 100 mg/kg: 170%
[2]; 30 mg/kg I.P.
  % inhibition of the effects of hypoxia: ATP: 64.6%
  % inhibition of the effects of hypoxia: EC (energy content): 66%
[2]; 30 mg/kg, compared with meclofenoxate 300 mg/kg
  effect on the ATP level and the energy content (in words): Such an effect is observed with a dose of 30 mg/kg
